{
  "source": "patent US20240316129A1",
  "about": "“Bacteria and Herbal Extract Nutraceutical Blends for Lung Health Maintenance” (The UAB Research Foundation, priority 2021, published 2024)",
  "key": {"[1]": {"tested_on": "newborn wild type C57BL/6 mice", "test": "Loss of function of Ac-PGP by RTR treatment in LPS-treated newborn mice", "format": "in vivo, mouse", "conditions": "under noxious stimuli, LPS+RTR compared to LPS alone, P<0.05", "description": "FIG. 9A illustrates that newborn wild type C57BL/6 mice were randomized to treatment with RTR, LPS, and RTR+LPS as well as normoxia and noxious stimuli."}, "mice": {"tested_on": "mice", "conditions": "normoxia and under noxious stimuli, P<0.05"}, "C57BL/6 mouse pups": {"tested_on": "C57BL/6 mouse pups", "test": "In vivo (mouse) dysbiosis model of chronic lung disease, LPS-treated pups"}, "RSB13": {"tested_on": "RSB13", "test": "Culture growth of probiotic strain RSB13 with herbal extracts or Vitamin D", "format": "cell-based, Lactobacillus rhamnosus", "conditions": "number of colonies per plate"}, "RSB11": {"tested_on": "RSB11", "test": "Culture growth of probiotic strain RSB11 with herbal extracts or Vitamin D", "format": "cell-based, Lactobacillus plantarum", "conditions": "number of colonies per plate"}, "RSB12": {"tested_on": "RSB12", "test": "Culture growth of probiotic strain RSB12 with herbal extracts or Vitamin D", "format": "cell-based, Lactobacillus acidophilus", "conditions": "number of colonies per plate"}, "[2]": {"conditions": "LPS-treated mice compared to controls, P<0.05"}},
  "data": [
    {"substance": "arginine-threonine-arginine [RTR]", "values": [
      {"measurement": "MPO concentrations", "setting": "[1]", "value": "significantly lower"},
      {"measurement": "RAC", "setting": "[1]", "value": "significantly higher"},
      {"measurement": "RVH", "setting": "[1]", "value": "significantly less severe"}
    ]},
    {"substance": "N-acetyl-Proline-Glycine-Proline [Ac-PGP]", "values": [
      {"measurement": "MPO concentration", "setting": "mice; ELISA", "value": "increased"},
      {"measurement": "NE concentrations in BALF", "setting": "mice", "value": "increased"},
      {"measurement": "RAC counts", "setting": "mice", "value": "decreased"},
      {"measurement": "right ventricular hypertrophy (RVH)", "setting": "mice", "value": "increased"}
    ]},
    {"substance": "lipopolysaccharide [LPS]", "values": [
      {"measurement": "lung tissue histology", "setting": "C57BL/6 mouse pups; LPS-treated C57BL/6 mouse pups", "value": "alveolar hypoplasia and simplification"},
      {"measurement": "myeloperoxidase (MPO) levels in BALF", "setting": "C57BL/6 mouse pups; [2]", "value": "significantly increased"},
      {"measurement": "neutrophil elastase (NE) levels in BALF", "setting": "C57BL/6 mouse pups; [2]", "value": "significantly increased"},
      {"measurement": "radial alveolar counts (RAC)", "setting": "C57BL/6 mouse pups; [2]", "value": "significantly decreased"},
      {"measurement": "Ac-PGP levels in BALF", "setting": "C57BL/6 mouse pups; LPS-treated mice compared to controls, by HPLC, P<0.05", "value": "significantly increased"}
    ]},
    {"substance": "Vitamin D", "values": [
      {"measurement": "culture growth of RSB13", "setting": "RSB13", "value": "do not have an inhibitory effect"},
      {"measurement": "culture growth of RSB11", "setting": "RSB11", "value": "do not have an inhibitory effect"},
      {"measurement": "culture growth of RSB12", "setting": "RSB12", "value": "do not have an inhibitory effect"}
    ]}
  ]
}
